Where two headings read alike, the source gives them in different places.
Columns and labels:
[1] = test system: human embryonic kidney HEK 293 cells; assay: MTS cell viability assay, HEK 293 cells; type: cell-based
Method: (§1) Human embryonic kidney HEK 293 cells (ATCC® no. CRL-1573™), colorectal carcinoma HT-29 cells (ATCC® no. HTB-38™), melanoma RPMI-7951 cells (ATCC® no. HTB-66), and breast cancer MDA-MB-231 cells (ATCC® HTB-26™) were obtained from the American Type Culture Collection (Manassas, VA, USA). […] The cell cultures were maintained at 37 °C in humidified atmosphere containing 5% CO2. […] After three passages the cells were used for the experiments. […] Then samples were vacuum evaporated and dissolved in DMSO to their stock concentrations of 20 mM. Cells (1.0 × 10^4) were seeded in 96-well plates (Jet Biofil, Guangzhou, China) and cultured in 200 µL of complete culture medium for 24 h at 37 °C in 5% CO2 incubator.

[2] = test system: colorectal carcinoma HT-29 cells; assay: MTS cell viability assay, HT-29 cells; type: cell-based, human
Method: as §1

[3] = test system: breast cancer MDA-MB-231 cells; assay: MTS cell viability assay, MDA-MB-231 cells; type: cell-based, human
Method: as §1

melanoma RPMI-7951 cells [4] = assay: MTS cell viability assay, RPMI-7951 cells; type: cell-based, human
Method: as §1

melanoma RPMI-7951 cells [5] = assay: Soft agar colony formation assay, RPMI-7951 cells; type: cell-based, human; details: for colony growth of RPMI-7951 cells (in words): concentrations of 0.5 µM and 1 µM; for colony growth of RPMI-7951 cells (in words) / decrease of number of colonies of RPMI-7951: soft agar; for colony formation of RPMI-7951 cells (in words): nontoxic concentration of 0.5 µM; for decrease of number of colonies of RPMI-7951: 1 µM, 14 days
Method: (§2) Compounds 1–6 were dissolved in sterile DMSO to prepare stock concentrations of 20 mM. Cells were treated with serially diluted compounds 1–6 (culture medium used as diluent) to give the intended final concentrations. The vehicle control is the cells treated with equivalent volume of DMSO (less than 0.5%) for all presented experiments.
(§3) Human cancer cells (2.4 × 10^4/mL) were seeded into 6-well plate and treated with compounds 1–6 (0.1, 0.5, and 1 µM) or cisplatin (3 µM) in 1 mL of 0.3% BME agar containing 10% FBS, 2 mM L-glutamine, and 25 µg/mL gentamicin. The cultures were maintained in a 37 °C, 5% CO2 incubator for 14 days, and the cell colonies were scored using a Motic microscope AE 20 (XiangAn, Xiamen, China) and ImageJ software bundled with 64-bit Java 1.8.0_112 (NIH, Bethesda, MD, USA).
(§4) Figure 3 Effect of compounds 1–6 on colony formation of human colorectal carcinoma HT-29, melanoma RPMI-7951, and breast cancer MDA-MB-231 cell lines. HT-29, RPMI-7951, and MDA-MB-231 cells (2.4 × 10^4 /mL) treated with/without investigated 1–6 (0.1, 0.5, and 1 µM) and subjected into a soft agar. The culture was maintained at 37 °C in a 5% CO2 atmosphere for 2 weeks. The colonies were counted under a microscope with the aid of the ImageJ software program (n = 6 for control and each compound, n—quantity of photos). The asterisks (* p < 0.05, ** p < 0.01, *** p < 0.001) indicate a significant decrease in colony formation in cells treated with compounds compared with the nontreated cells (control).

[6] = test system: breast cancer MDA-MB-231 cells; assay: Soft agar colony formation assay, MDA-MB-231 cells; type: cell-based, human; details: for colony growth of MDA-MB-231 cells (in words): concentrations of 0.5 µM and 1 µM; for colony growth of MDA-MB-231 cells (in words) / decrease of number of colonies of MDA-MB-231: soft agar; for colony formation of MDA-MB-231 cells (in words): nontoxic concentration of 0.5 µM; for decrease of number of colonies of MDA-MB-231: 1 µM, 14 days
Method: as §2, §3, §4

[7] = test system: colorectal carcinoma HT-29 cells; assay: Soft agar colony formation assay, HT-29 cells; type: cell-based, human; details: for colony growth of HT-29 cells (in words): concentrations of 0.5 µM and 1 µM; for colony growth of HT-29 cells (in words) / decrease of number of colonies of HT-29: soft agar; for colony formation of HT-29 cells (in words): nontoxic concentration of 0.5 µM; for decrease of number of colonies of HT-29: 1 µM, 14 days
Method: as §2, §3, §4

[8] = test system: HT-29, RPMI-7951, and MDA-MB-231 cells; assay: Soft agar colony formation assay, statements on all types of cancer cells; type: cell-based, human; details: nontoxic concentrations
Method: as §2, §3
as §4, with “The asterisks (* p < 0.05, ** p < 0.01, *** p < 0.001) indicate a significant decrease in colony formation in cells treated with compounds compared with the nontreated cells (control).” left out

[9] = test system: HEK 293, HT-29, RPMI-7951, and MDA-MB-231 cells; assay: MTS cell viability assay, statements on all tested cell lines; type: cell-based, human; details: individual compounds, 24 h, concentrations range up to 40 µM
Method: Cells (1.0 × 10^4) were seeded in 96-well plates (Jet Biofil, Guangzhou, China) and cultured in 200 µL of complete culture medium for 24 h at 37 °C in 5% CO2 incubator. […] Cells were also treated by cisplatin (positive control) at 1, 5, 10, 50, 100 µM for 24 and 48 h. Subsequently, the cells were incubated with 15 µL MTS reagent for 3 h, and the absorbance of each well was measured at 490/630 nm using Power Wave XS microplate reader (BioTek, Wynusky, VT, USA).

[10] = Homo sapiens, HEK293, 24 h, individual compounds, 24 h, MTS, read-out: Inhibiting Concentration, (IC50), HEK 293, a
[11] = Homo sapiens, HT-29, 24 h, individual compounds, 24 h, MTS, read-out: Inhibiting Concentration, (IC50), HT-29, a
[12] = Homo sapiens, MDA-MB-231, 24 h, individual compounds, 24 h, MTS, read-out: Inhibiting Concentration, (IC50), MDA-MB-231, a
[13] = Homo sapiens, RPMI-7951, 24 h, individual compounds, 24 h, MTS, read-out: Inhibiting Concentration, (IC50), RPMI-7951, a
[14] = Homo sapiens, HEK293, 24 h, read-out: Inhibiting Concentration, (IC50), HEK 293, a
[15] = Homo sapiens, HT-29, 24 h, read-out: Inhibiting Concentration, (IC50), HT-29, a
[16] = Homo sapiens, MDA-MB-231, 24 h, read-out: Inhibiting Concentration, (IC50), MDA-MB-231, a
[17] = Homo sapiens, RPMI-7951, 24 h, read-out: Inhibiting Concentration, (IC50), RPMI-7951, a

| Structure (SMILES) | colony growth of RPMI-7951 cells (in words) (melanoma RPMI-7951 cells [5]) | colony formation of RPMI-7951 cells (in words) (melanoma RPMI-7951 cells [5]) | IC50 [1, 10] [µM] | IC50 [2, 11] [µM] | IC50 [3, 12] [µM] | colony growth of MDA-MB-231 cells (in words) [6] | colony formation of MDA-MB-231 cells (in words) [6] | colony growth of HT-29 cells (in words) [7] | colony formation of HT-29 cells (in words) [7] | IC50 (melanoma RPMI-7951 cells [4]; [13]) [µM] | decrease of number of colonies of RPMI-7951 (melanoma RPMI-7951 cells [5]) [%] | decrease of number of colonies of MDA-MB-231 [6] [%] | decrease of number of colonies of HT-29 [7] [%] | IC50 [1, 14] [µM] | IC50 [2, 15] [µM] | IC50 [3, 16] [µM] | IC50 (melanoma RPMI-7951 cells [4]; [17]) [µM] | further results |
| --- | --- | --- | --- | --- | --- | --- | --- | --- | --- | --- | --- | --- | --- | --- | --- | --- | --- | --- |
| N.N.[Cl][Pt][Cl] [cisplatin, reference compound] |  |  |  |  |  |  |  |  |  |  |  |  |  |  |  |  |  | IC50 ([1]; after 48 h of treatment (data not shown), read-out: IC50 against HEK 293 cells): 64.6 µM; IC50 ([2]; after 48 h of treatment (data not shown), read-out: IC50 against HT-29 cells): 95.4 µM; IC50 ([3]; after 48 h of treatment (data not shown), read-out: IC50 against MDA-MB-231 cells): 7.8 µM; IC50 (melanoma RPMI-7951 cells [4]; after 48 h of treatment (data not shown), read-out: IC50 against RPMI-7951 cells): 48.4 µM |
| CO[C@@H]1[C@@H](O)[C@H](O[C@@H]2[C@@H](O)[C@H](O[C@H]3[C@H](O)[C@@H](O[C@@H]4OC[C@@H](O)[C@H](O)[C@H]4O)[C@H](O[C@H]4[C@H](O[C@H]5CC[C@]6(C)[C@@H]7CCC89C(=O)O[C@@](C)(CCC=C(C)C)[C@H]8[C@@H](OC(C)=O)C[C@@]9(C)C7=CC[C@H]6C5(C)C)OC[C@@H](O)[C@@H]4O)O[C@@H]3C)O[C@H](CO)[C@H]2O)OC[C@H]1O (stereo partly drawn) [Compound 3, 3β-O-{3-O-methyl-β-D-xylopyranosyl-(1→3)-β-D-glucopyranosyl-(1→4)-[β-D-xylopyranosyl-(1→2)]-β-D-quinovopyranosyl-(1→2)-β-D-xylopyranosyl}-16β-acetoxyholosta-7,24-diene] | almost completely suppressed | almost completely suppressed | 6.7 ± 0.2 | 6.2 ± 0.3 | 6.4 ± 0.4 | almost completely suppressed | almost completely suppressed | almost completely suppressed | almost completely suppressed | 23.7 ± 0.4 |  |  |  |  |  |  |  |  |
| CO[C@@H]1[C@@H](O)[C@H](O[C@@H]2[C@@H](O)[C@H](O[C@H]3[C@H](O)[C@@H](O[C@@H]4OC[C@@H](O)[C@H](O)[C@H]4O)[C@H](O[C@H]4[C@H](O[C@H]5CC[C@]6(C)[C@@H]7CCC89C(=O)O[C@@](C)(/C=C/C=O)[C@H]8[C@@H](OC(C)=O)C[C@@]9(C)C7=CC[C@H]6C5(C)C)OC[C@@H](O)[C@@H]4O)O[C@@H]3C)O[C@H](CO)[C@H]2O)OC[C@H]1O (stereo partly drawn) [Compound 1, 3β-O-{3-O-methyl-β-D-xylopyranosyl-(1→3)-β-D-glucopyranosyl-(1→4)-[β-D-xylopyranosyl-(1→2)]-β-D-quinovopyranosyl-(1→2)-β-D-xylopyranosyl}-16β-acetoxy-25,26,27-trinorholosta-7,22-dien-24-al] |  |  | > 40 | > 40 | > 40 |  |  |  |  | > 40 | 27 | 28 | 21 |  |  |  |  | colony formation of all types of cancer cells (in words) [8]: slightly inhibited; cytotoxic activity against the tested cell lines (in words) [9]: nontoxic |
| CO[C@@H]1[C@@H](O)[C@H](O[C@@H]2[C@@H](O)[C@H](O[C@H]3[C@H](O)[C@@H](O[C@@H]4OC[C@@H](O)[C@H](O)[C@H]4O)[C@H](O[C@H]4[C@H](O[C@H]5CC[C@]6(C)[C@@H]7CCC89C(=O)O[C@@](C)(/C=C/C=C(C)C)[C@H]8[C@@H](OC(C)=O)C[C@@]9(C)C7=CC[C@H]6C5(C)C)OC[C@@H](O)[C@@H]4O)O[C@@H]3C)O[C@H](CO)[C@H]2O)OC[C@H]1O (stereo partly shown) [Compound 5, cucumarioside C2] | almost completely suppressed | almost completely suppressed |  |  |  | almost completely suppressed | almost completely suppressed | almost completely suppressed | almost completely suppressed |  |  |  |  | 7.9 ± 0.9 | 5.5 ± 0.6 | 4.4 ± 0.09 | 5.9 ± 0.9 |  |
| C=C(C)[C@H]1[C@@H]2C[C@@]3(C)C4=CC[C@H]5C(C)(C)[C@@H](O[C@@H]6OC[C@@H](O)[C@H](O)[C@H]6O[C@@H]6O[C@H](C)[C@@H](O[C@@H]7O[C@H](CO)[C@@H](O)[C@H](O[C@@H]8OC[C@@H](O)[C@H](OC)[C@H]8O)[C@H]7O)[C@H](O)[C@H]6O[C@@H]6OC[C@@H](O)[C@H](O)[C@H]6O)CC[C@]5(C)[C@@H]4CCC13C(=O)O2 [Compound 2, 3β-O-{3-O-methyl-β-D-xylopyranosyl-(1→3)-β-D-glucopyranosyl-(1→4)-[β-D-xylopyranosyl-(1→2)]-β-D-quinovopyranosyl-(1→2)-β-D-xylopyranosyl}-23,24,25,26,27-pentanorlanosta-7,20(22)-diene-18(16)-lactone] |  |  | > 20 | > 20 | > 20 |  |  |  |  | > 20 | 26 | 25 | 22 |  |  |  |  | IC50 ([1]; individual compounds, 24 h, MTS, read-out: Inhibiting Concentration, (IC50), HEK 293, a): 28.6 ± 2.1 µM; IC50 ([2]; individual compounds, 24 h, MTS, read-out: Inhibiting Concentration, (IC50), HT-29, a): 26.2 ± 2.5 µM; IC50 ([3]; individual compounds, 24 h, MTS, read-out: Inhibiting Concentration, (IC50), MDA-MB-231, a): 21.5 ± 0.5 µM; IC50 (melanoma RPMI-7951 cells [4]; individual compounds, 24 h, MTS, read-out: Inhibiting Concentration, (IC50), RPMI-7951, a): 20.4 ± 1.6 µM |
| C=C(C)[C@H]1[C@@H]2C[C@@]3(C)C4=CC[C@H]5C(C)(C)[C@@H](O[C@@H]6OC[C@@H](O)[C@H](O)[C@H]6O[C@@H]6O[C@H](C)[C@@H](O[C@@H]7O[C@H](CO)[C@@H](O)[C@H](O[C@@H]8OC[C@@H](O)[C@H](OC)[C@H]8O)[C@H]7O)[C@H](O)[C@H]6O)CC[C@]5(C)[C@@H]4CCC13C(=O)O2 [Compound 6, cucumarioside A10] |  |  |  |  |  |  |  |  |  |  | 45 | 40 | 28 | 6.3 ± 0.6 | 7.8 ± 0.7 | 5.5 ± 0.1 | 5.8 ± 2.6 |  |
| CO[C@@H]1[C@@H](O)[C@H](O[C@@H]2[C@@H](O)[C@H](O[C@H]3[C@H](O)[C@@H](O[C@@H]4OC[C@@H](O)[C@H](O)[C@H]4O)[C@H](O[C@H]4[C@H](O[C@H]5CC[C@]6(C)[C@@H]7CCC89C(=O)O[C@@](C)(/C=C\C=C(C)C)[C@H]8[C@@H](OC(C)=O)C[C@@]9(C)C7=CC[C@H]6C5(C)C)OC[C@@H](O)[C@@H]4O)O[C@@H]3C)O[C@H](CO)[C@H]2O)OC[C@H]1O (stereo partly shown) [Compound 4, cucumarioside C1] | almost completely suppressed | almost completely suppressed |  |  |  | almost completely suppressed | almost completely suppressed | almost completely suppressed | almost completely suppressed |  |  |  |  | 5.5 ± 0.3 | 5.3 ± 0.2 | 3.6 ± 0.2 | 5.8 ± 1.2 |  |

Source: paper PMC8001898, “New Triterpene Glycosides from the Far Eastern Starfish Solaster pacificus and Their Biological Activity” (Biomolecules, 2021)
